We go through four compounds from publication PMC4698058 (Fitoterapia, 2015).

The test has as its target T1, recombinant human M1 receptor (Homo sapiens, UniProt P11229).
T1 sequence (P11229 1-460): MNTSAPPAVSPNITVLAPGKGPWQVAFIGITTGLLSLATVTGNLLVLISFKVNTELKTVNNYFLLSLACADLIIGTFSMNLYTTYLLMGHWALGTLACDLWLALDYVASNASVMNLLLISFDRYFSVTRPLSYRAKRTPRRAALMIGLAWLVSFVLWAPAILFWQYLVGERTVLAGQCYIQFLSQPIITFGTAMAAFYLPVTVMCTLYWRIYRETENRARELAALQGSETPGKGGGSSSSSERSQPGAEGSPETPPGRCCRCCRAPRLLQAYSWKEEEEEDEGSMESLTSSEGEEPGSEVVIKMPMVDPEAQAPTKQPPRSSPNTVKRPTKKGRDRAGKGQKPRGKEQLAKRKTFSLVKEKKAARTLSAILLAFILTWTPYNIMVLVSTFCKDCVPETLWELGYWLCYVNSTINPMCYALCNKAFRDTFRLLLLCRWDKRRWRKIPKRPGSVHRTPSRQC
Put plainly: Inhibition of carbacol-induced Ca2+ mobilization in CHO-M1 cells. The test is classed as cell-based. The settings on record: for inhibition of carbacol induced M1 receptor activities: compound at 10 μM. For orientation: A change in cytosolic calcium serves as a functional read-out for many receptors and channels.

For `O=C(O)/C=C/c1ccc(O)c(O)c1` [caffeic acid, reference compound], the “activity against M1 receptor” value (concentrations up to 10 μM, CHO-M1 cells) is listed as “did not show any activity”.
Take `NCCCCNC(=O)/C=C/c1ccc(O)c(O)c1` [compound 6, cafeoylputrescine]: the “inhibition of carbacol induced M1 receptor activities” value (CHO-M1 cells) was 35-40%.
With scotanamine A [compound 1], the “inhibition of carbacol induced M1 receptor activities” value (CHO-M1 cells) is listed as 35-40%.
Consider scotanamine C [compound 3], for which the IC50 – broadly, the concentration needed to halve the response being measured – (read-out: IC50, inhibitory activity against M1 receptor) was found to be 7.8 µM.
